Assays:
[1] = Particle size of compound (1) lots, wet and dry method; format: physicochemical
[2] = FLODEX powder flowability (Flodex); format: physicochemical; conditions: for Flowdex: crystalline compound (1) lot, Table 2; for Flodex: neat powder, listed as Compound (1)
Description: The flow of dry powders was characterized using a FLODEX™ Powder Flowability Index Test Instrument (Hanson Research Corporation, Chatsworth, Calif.). The instrument was equipped with a cylindrical metal reservoir, which holds the test powder prior to flow testing. The cylindrical reservoir has an inside diameter of 5.7 cm and a length of […]. The bottom end of the reservoir can be closed with removable metal discs. Each disc has a round orifice centered in the disc. Orifice diameters range from 4 mm to 10 mm in 1 mm increments, and from 10 mm to 34 mm in 2 mm increments. Prior to flow testing, the orifice is blocked. Powder is then placed over the blocked orifice. When the orifice is unblocked, powder can flow through the orifice under the force of gravity if the orifice diameter is sufficiently large. Powder that flows through small orifices is considered to have flow properties useful for tableting. For example, a Flodex measurement (Flodex) of less than about 24 mm is […] high-speed tableting operations at commercial scale. A Flodex less than about 20 mm is useful for high-speed tableting operations. A Flodex of 18 mm or less is considered especially useful for high speed tableting operations.
The Flodex is determined by first gently filling the reservoir with approximately 70 cc of test powder while the orifice at the bottom is blocked, while avoiding severe piling, and without vibrating or tapping the powder bed. Next, the orifice is unblocked. This can be accomplished by opening a shutter that is supplied with the instrument. Alternatively, if a shutter is not used, the powder-filled reservoir fitted with a disc can be set on a dry, flat surface to block the orifice. Then, slowly and evenly, the reservoir is lifted to allow the powders to flow. In either procedure, if the powder flows through the orifice, a clear channel is left within the powder bed. […] The flow test is conducted with various orifice sizes until the minimum orifice size for good flow is identified, which is referred to as the Flodex.

[3] = dosed either orally or directly into the colon of a mammal; cited from earlier work
[4] = clinical trials (Gerson et al. 2009); cited from earlier work
[5] = Bulk density, tap density and compressibility of powders; format: physicochemical; conditions: major component of Example 15 blend

Row | Particle size, Dry method, dv0.5 [1] | Particle size, Dry method, dv0.9 [1] | Particle size, Wet method, dv0.5 [1] | Particle size, Wet method, dv0.9 [1] | Flowdex [2] | Flodex ([2]; Lot 70) | Flodex ([2]; Lot 4) | Flodex ([2]; Lot 71) | Bulk Density [5] | Structure (SMILES) | bioavailability as R-baclofen [3] | reflux episodes [4]
1 | 27.53 μm | 106.87 μm | 4.81 μm | 37.2 μm | 26 mm | 26 mm |  |  |  | CC(C)C(=O)O[C@@H](OC(=O)NC[C@H](CC(=O)O)c1ccc(Cl)cc1)C(C)C [Lot 70, (3R)-4-{[(1S)-2-Methyl-1-(2-methylpropanoyloxy)propoxy]carbonylamino}-3-(4-chlorophenyl)butanoic acid] |  | 
2 | 11.09 μm | 102 μm | 3.35 μm | 40.47 μm | 23 mm |  | 24 mm |  |  | CC(C)C(=O)O[C@@H](OC(=O)NC[C@H](CC(=O)O)c1ccc(Cl)cc1)C(C)C [Lot 4, (3R)-4-{[(1S)-2-Methyl-1-(2-methylpropanoyloxy)propoxy]carbonylamino}-3-(4-chlorophenyl)butanoic acid] |  | 
3 | 17.64 μm | 107.48 μm | 22.17 μm | 63.02 μm | 26 mm |  |  | 26 mm |  | CC(C)C(=O)O[C@@H](OC(=O)NC[C@H](CC(=O)O)c1ccc(Cl)cc1)C(C)C [Lot 71, (3R)-4-{[(1S)-2-Methyl-1-(2-methylpropanoyloxy)propoxy]carbonylamino}-3-(4-chlorophenyl)butanoic acid] |  | 
4 |  |  |  |  |  |  |  |  | 0.15 g/cc | CC(C)C(=O)O[C@@H](OC(=O)NC[C@H](CC(=O)O)c1ccc(Cl)cc1)C(C)C [Compound (1), (3R)-4-{[(1S)-2-Methyl-1-(2-methylpropanoyloxy)propoxy]carbonylamino}-3-(4-chlorophenyl)butanoic acid] | high bioavailability | reduce reflux episodes

— patent publication US10071068B2, “Sustained release oral dosage forms of an R-baclofen prodrug” (XENOPORT, INC., priority 2009, dated 2018)
